We go through two compounds from article PMC4774911, “Biochemical Screening of Five Protein Kinases from Plasmodium falciparum against 14,000 Cell-Active Compounds” (PLoS ONE, 2016).

“And” between values parts separate entries of the source, which are not always exact repeats. Equal entries are not always repeated.

Targets include CAMK2D (Homo sapiens, UniProt Q13557); PIM2 (Homo sapiens, UniProt Q9P1W9); CSNK2A2 (Homo sapiens, UniProt P19784).
Assay in all cases: biochemical
Common to all, as to set-up: endogenous in cells; host or cells: K562 cell extract; species or system K562 (extract); replicate k of n = 2 (each experiment ID is one independent experiment; two experiment IDs per compound)
Holding throughout (details): read-out: KDapp

The target of another test is T1, MAP4K2 (Homo sapiens, UniProt Q12851).
T1 sequence (Q12851 1-820): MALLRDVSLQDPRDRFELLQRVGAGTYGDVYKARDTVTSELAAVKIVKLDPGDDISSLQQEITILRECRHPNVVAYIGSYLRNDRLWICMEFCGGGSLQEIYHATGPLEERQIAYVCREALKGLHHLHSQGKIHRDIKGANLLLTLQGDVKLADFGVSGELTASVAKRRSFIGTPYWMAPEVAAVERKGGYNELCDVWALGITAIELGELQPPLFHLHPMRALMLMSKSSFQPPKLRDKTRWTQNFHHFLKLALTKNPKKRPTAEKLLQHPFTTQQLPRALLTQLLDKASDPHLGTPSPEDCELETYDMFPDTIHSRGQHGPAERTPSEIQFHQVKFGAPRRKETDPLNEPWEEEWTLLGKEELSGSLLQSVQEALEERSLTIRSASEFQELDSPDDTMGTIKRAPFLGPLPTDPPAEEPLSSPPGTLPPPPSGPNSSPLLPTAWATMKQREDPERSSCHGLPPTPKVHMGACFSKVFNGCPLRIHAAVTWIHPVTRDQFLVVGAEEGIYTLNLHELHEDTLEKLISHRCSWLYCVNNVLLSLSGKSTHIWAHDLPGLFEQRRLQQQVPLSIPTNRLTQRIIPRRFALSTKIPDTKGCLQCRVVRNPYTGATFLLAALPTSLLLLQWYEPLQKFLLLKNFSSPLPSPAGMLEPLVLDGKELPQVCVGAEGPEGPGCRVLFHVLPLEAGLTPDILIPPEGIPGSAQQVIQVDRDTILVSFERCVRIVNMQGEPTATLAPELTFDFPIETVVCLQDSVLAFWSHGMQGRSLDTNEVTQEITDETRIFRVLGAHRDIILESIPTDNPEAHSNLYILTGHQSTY

The target in the next test is T2, PDPK1 (Homo sapiens, UniProt O15530).
T2 sequence (O15530 1-556): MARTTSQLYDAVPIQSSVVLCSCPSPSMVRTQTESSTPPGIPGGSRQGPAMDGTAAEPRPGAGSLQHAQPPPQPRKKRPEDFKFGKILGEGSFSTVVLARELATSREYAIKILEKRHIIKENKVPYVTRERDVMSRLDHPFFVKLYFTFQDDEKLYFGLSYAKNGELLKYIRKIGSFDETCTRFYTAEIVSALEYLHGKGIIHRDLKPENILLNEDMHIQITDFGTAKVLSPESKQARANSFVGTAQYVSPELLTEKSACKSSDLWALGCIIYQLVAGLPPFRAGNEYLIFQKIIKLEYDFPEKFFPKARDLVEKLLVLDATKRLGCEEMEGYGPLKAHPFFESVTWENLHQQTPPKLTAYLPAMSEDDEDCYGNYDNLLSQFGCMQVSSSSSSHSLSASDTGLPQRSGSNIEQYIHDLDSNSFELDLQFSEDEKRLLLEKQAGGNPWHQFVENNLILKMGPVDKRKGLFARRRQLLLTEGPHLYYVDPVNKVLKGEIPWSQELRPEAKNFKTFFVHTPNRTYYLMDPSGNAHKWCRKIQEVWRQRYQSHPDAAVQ

A further test has as its target T3, PRKX (Homo sapiens, UniProt P51817).
T3 sequence (P51817 1-358): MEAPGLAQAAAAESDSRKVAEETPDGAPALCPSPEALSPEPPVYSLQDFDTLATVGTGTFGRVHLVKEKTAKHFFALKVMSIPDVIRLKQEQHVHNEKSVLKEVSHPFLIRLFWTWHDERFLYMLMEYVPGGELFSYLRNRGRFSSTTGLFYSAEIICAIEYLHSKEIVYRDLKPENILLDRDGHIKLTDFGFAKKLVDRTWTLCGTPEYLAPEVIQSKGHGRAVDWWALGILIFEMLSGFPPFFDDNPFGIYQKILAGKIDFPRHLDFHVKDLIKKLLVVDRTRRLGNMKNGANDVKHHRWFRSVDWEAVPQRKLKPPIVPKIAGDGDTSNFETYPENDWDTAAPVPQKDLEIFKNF

The target in another test is T4, TP53RK (Homo sapiens, UniProt Q96S44).
T4 sequence (Q96S44 1-253): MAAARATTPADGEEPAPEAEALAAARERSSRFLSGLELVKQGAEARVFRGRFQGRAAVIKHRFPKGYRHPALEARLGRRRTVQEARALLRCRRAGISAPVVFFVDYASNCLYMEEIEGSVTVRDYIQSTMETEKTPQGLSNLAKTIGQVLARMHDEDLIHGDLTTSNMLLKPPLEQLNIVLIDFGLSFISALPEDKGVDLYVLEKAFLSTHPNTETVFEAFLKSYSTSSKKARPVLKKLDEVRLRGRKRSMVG

CAMK2D, sequence (Q13557 whole entry): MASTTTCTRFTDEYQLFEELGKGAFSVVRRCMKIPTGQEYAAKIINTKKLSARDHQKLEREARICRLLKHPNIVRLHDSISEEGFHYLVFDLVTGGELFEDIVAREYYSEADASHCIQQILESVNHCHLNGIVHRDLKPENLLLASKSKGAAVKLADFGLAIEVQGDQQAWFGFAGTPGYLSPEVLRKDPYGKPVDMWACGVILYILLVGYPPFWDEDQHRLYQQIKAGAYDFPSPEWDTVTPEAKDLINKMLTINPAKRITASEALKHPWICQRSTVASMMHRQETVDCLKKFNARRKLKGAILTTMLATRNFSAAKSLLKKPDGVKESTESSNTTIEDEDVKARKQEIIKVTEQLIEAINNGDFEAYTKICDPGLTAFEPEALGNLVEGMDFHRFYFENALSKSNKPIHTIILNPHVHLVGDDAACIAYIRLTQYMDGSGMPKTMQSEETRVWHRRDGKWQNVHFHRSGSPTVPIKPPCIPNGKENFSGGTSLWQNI
CSNK2A2, sequence (P19784 whole entry): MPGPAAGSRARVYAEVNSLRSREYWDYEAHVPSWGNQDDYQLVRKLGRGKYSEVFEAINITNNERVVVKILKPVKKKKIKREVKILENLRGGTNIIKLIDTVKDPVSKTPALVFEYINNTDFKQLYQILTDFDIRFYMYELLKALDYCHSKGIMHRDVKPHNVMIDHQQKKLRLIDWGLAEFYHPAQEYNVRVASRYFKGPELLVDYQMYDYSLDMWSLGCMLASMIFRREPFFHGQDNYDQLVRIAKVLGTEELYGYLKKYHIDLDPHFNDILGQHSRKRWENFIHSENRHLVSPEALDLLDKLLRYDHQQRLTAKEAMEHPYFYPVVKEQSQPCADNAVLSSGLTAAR
PIM2, sequence (Q9P1W9 whole entry): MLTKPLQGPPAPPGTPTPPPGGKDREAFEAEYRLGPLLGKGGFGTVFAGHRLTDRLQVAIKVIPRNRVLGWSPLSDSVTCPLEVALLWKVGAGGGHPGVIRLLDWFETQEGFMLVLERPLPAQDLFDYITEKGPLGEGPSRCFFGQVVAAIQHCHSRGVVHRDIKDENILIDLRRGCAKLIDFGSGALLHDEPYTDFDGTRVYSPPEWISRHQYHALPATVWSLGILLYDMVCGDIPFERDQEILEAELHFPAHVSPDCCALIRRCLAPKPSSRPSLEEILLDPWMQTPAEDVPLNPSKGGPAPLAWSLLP

On to `CN1CCN(c2ccc(Nc3ncc(C#N)c(Nc4ccccc4C(N)=O)n3)cc2)CC1.Cl` [TCMDC-134116], for which the Kd at CAMK2D is 323 nM and 163 nM; at MAP4K2, 648 nM; at PDPK1 it was 605 nM and 503 nM; on PIM2, 2970 nM; on PRKX, 1030 nM; on TP53RK, 3770 nM.
Take `CN(C)CC(O)COc1ccc(Nc2ncc([N+](=O)[O-])c(Nc3ccccc3O)n2)cc1.O=C(O)C(F)(F)F` (stereo not shown) [TCMDC-141399]: the Kd on CSNK2A2 is 33.3 nM and 26.8 nM.
